Assay results as given in paper PMC6172068 (Cancer Science, 2018).

Tests used:
[1] = Plasma pharmacokinetics after single and multiple doses; assay type: in vivo, Japanese patients
Urine pharmacokinetics = assay type: in vivo, Japanese patients
[2] = 12-lead electrocardiogram QT interval; assay type: in vivo, Japanese patients
[3] = system: anaplastic lymphoma kinase; conditions: preclinical studies; cited from earlier work
[4] = one patient who received 20 mg/d

For `CCc1nc(C(N)=O)c(Nc2ccc(N3CCC(N4CCN(C)CC4)CC3)c(OC)c2)nc1NC1CCOCC1` [gilteritinib], the “accumulation relative to baseline” value ([1]; after multiple dose administration) was roughly 8 fold, the half-life ([1]; human, plasma, oral) was 84 to 126 h and the Tmax ([1]; human, plasma, oral, Median tmax, after administration of single or multiple doses) was 3 to 7 h. The “achievement of steady-state gilteritinib plasma concentrations (mean trough concentrations)” value ([1]; once-daily dosing, Day 1 Cycle 1 through Day 1 Cycle 2) was “by Day 15 Cycle 1”, the exposure versus dose ([1]; single-dose and multiple-dose) was “increased in a dose‐proportional manner” and the “mean percentage of unchanged excreted gilteritinib (urine)” value (Urine pharmacokinetics; after a single dose (data not shown)) was no more than 3.6%. The “mean percentage of unchanged excreted gilteritinib (urine)” value (Urine pharmacokinetics; after multiple doses) was no more than 13.1%, the “possible treatment-related prolongation of the QTcF interval” value ([2]; 1 patient, 40 mg/d dose cohort) was 4.2% and the “prolonged QT interval identified as an AE” value ([2]; 2 patients (20 mg/d and 40 mg/d)) was 8.3%. For the same molecule, the “patients with maximum QTcF change of >30 ms” value ([2]; 5 of 22 evaluable patients) was 22.7%, the “patients with prolonged QT interval of >450 ms (QTcF)” value ([2]; 9 of 24 patients) was 37.5% and the “maximum postbaseline QTcF change from baseline” value [2, 4] was 65 ms. For the same molecule, the “mean maximum postbaseline QTcF” value [2, 4] was 486 ms and the “inhibition of anaplastic lymphoma kinase” value [3] was “robust inhibitor”.
